Measured values as given in patent US10925858B2, “S-nitrosoglutathione (GSNO) and GSNO reductase inhibitors for use in therapy” (MUSC FOUNDATION FOR RESEARCH DEVELOPMENT, priority 2017, dated 2021).

Legend:
3-nitrotyrosine = assay: Western analysis of 3-nitrotyrosine in rat brains with TBI; format: in vivo, Sprague Dawley rats; settings: 24 hr after TBI, traumatic penumbra; GSNO 0.05 mg/kg i.v. or FeTPPS 3 mg/kg i.v.
Protocol: Western immunoblot analysis was performed by standard method using 50 μg of cell lysates. Following the SDS-PAGE electrophoresis, proteins were transferred from the gel onto the Polyvinylidene fluoride membrane (GE Healthcare Life Sciences, Marlborough, Mass.). Membranes were blocked with non-fat dry milk (Santa Cruz Biotechnology) or I-Block™ (ThermoFisher Scientific, Waltham, Mass.) for detection of phospho-proteins and incubated with primary antibodies, such as MBP (Santa Cruz Biotech Cat #: sc13914; RRID: AB_648798), phospho-(Ser^19) MLC (Abeam, Cat #: ab2480; RRID: AB_303094), MLC (Abeam, Cat #: ab79935; RRID:AB_1952220), P-actin (Santa Cruz Biotechnology, Cat #: sc-47778; RRID:AB_2714189), phospho-eNOS (Ser^1177) (Cell Signaling, Cat #: 9571; RRID: AB_329837, Danvers, Mass.), eNOS (Cell Signaling, Cat #: 32027), RhoA (Santa Cruz Biotechnology; Cat #: sc418; RRID: AB_628218) or 3-nitrotyrosine (Abeam, Cat #: ab61392; RRID: AB_942087). […]
All animals used in this study received humane care in compliance with the Medical University of South Carolina's (MUSC) guidance and the National Research Council's criteria for humane care. […] The group size was determined by power analysis based on our previous data (Khan et al., 2016b; Khan et al., 2009). […]

[1] = system: protein associated S-nitrosothiols; assay: Biotin-switch analysis of protein associated S-nitrosothiols in spleens of EAE mice; format: in vivo, C57BL/6 mice; settings: vs control and EAE mice
Protocol: Female C57BL/6 mice of 8-12 weeks of age, purchased from Jackson Laboratory, were provided with food and water ad libitum and were kept in pathogen free animal care facility of Medical University of South Carolina (MUSC) throughout the study. All procedures were conducted in accordance with accepted standards of humane care as approved by the Institutional Animal Care and Use Committee (Approved number: AR #1644). EAE was induced as described previously (Nath et al., 2009). Briefly, mice were immunized subcutaneously in the flank regions with MOG35-55 peptide (MOG; 200 μg; Peptide International) emulsified (1:1) in 100 ul complete Freund's adjuvant (CFA) on day 0 and day 7. Additionally, 300 ng of Pertussis toxin (Sigma-Aldrich, St. Louis, Mo.) was given on day 0 and day 2 by i.p. injection. […] Clinical signs of EAE were scored by examiners blinded to experimental treatments using the following scale: 0=no clinical signs of disease; 1=piloerection and sluggish; 2=limp tail (ataxia); 2.5=ataxia with partial hind limb paralysis; 3=full paralysis of hind limb; 3.5=full paralysis of hind limb with paralysis of one fore limb; 4=full paralysis of two limbs; 4.5=moribund stage; 5=death. […]
Protein S-Nitrosylation was detected using the biotin-switch method with slight modification as described in our previous study (Kim et al., 2014). […]

BBB leakage = assay: BBB disruption by Evans blue extravasation in CCI rat model of TBI; format: in vivo, Sprague Dawley rats; settings: 24 hr after TBI; GSNO 0.05 mg/kg i.v. or FeTPPS 3 mg/kg i.v. right after impact
Text: All animals used in this study received humane care in compliance with the Medical University of South Carolina's (MUSC) guidance and the National Research Council's criteria for humane care. Animal procedures were approved by the institutional animal care and use committee of MUSC (AR #2703). For generation of CCI model of TBI, young adult male (˜3-4 months old) Sprague Dawley rats weighing between 260-300 g were randomly divided into four groups: 1) TBI animals treated with vehicle (TBI; n=13), 2) TBI with GSNO (0.05 mg/kg body weight/i.v.) treatment (TBI+GSNO; n=13), 3) TBI with FeTPPS (3 mg/kg body weight, i.v.) treatment (TBI+FeTPPS; n=13), 4) sham-operated treated with vehicle (Sham; n=13). The group size was determined by power analysis based on our previous data (Khan et al., 2016b; Khan et al., 2009). Ketamine (90 mg/kg body weight) and xylazine (10 mg/kg body weight) as surgical anesthesia were administered intraperitoneally. Analgesic buprenorphine was administered pre-emptively to alleviate pain following surgery. […]
BBB leakage was assessed as previously described from our laboratory (Khan et al., 2016b; Khan et al., 2009). […] The brain tissues were homogenized in 750 μl of N, N-dimethylformamide (DMF) and centrifuged at 10,000×g for 25 minutes, and EB content in supernatant was fluorimetrically analyzed (λex 620 nm, λem 680 nm).

SMILES	brain levels of 3-nitrotyrosine (3-nitrotyrosine)	spleen levels of protein-associated S-nitrosothiols [1]	TBI-induced increase in Evan's blue extravasation (BBB leakage)
N[C@@H](CCC(=O)N[C@@H](CSN=O)C(=O)NCC(=O)O)C(=O)O [GSNO, S-nitrosoglutathione]	reduced	increased	reduced
Cc1cc(C(N)=O)ccc1-n1c(CCC(=O)O)ccc1-c1ccc(-n2ccnc2)cc1 [N6022, reference compound]	–	increased	–
Cl.O=S(=O)([O-])c1ccc(-c2c3nc(c(-c4ccc(S(=O)(=O)O)cc4)c4ccc([nH]4)c(-c4ccc(S(=O)(=O)O)cc4)c4nc(c(-c5ccc(S(=O)(=O)O)cc5)c5ccc2[nH]5)C=C4)C=C3)cc1.[Fe] [FeTPPS, 5,10,15,20-Tetrakis(4-sulfonatophenyl)porphyrinato Iron (III), Cl, reference compound]	reduced	–	reduced
